From patent US11787780B2 (CORCEPT THERAPEUTICS INCORPORATED, priority 2020, dated 2023) come the findings set out here.

Experiment [1] concerns the target glucocorticoid receptor (GR) recombinant ligand binding domain (LBD) (Homo sapiens (Human), UniProt P04150). As to the kind of experiment: GR binding fluorescence polarisation (FP) assay. As to conditions: displacement of fluorescently tagged ligand. Here is the method:
Binding of test compounds to the glucocorticoid receptor (GR) is determined using a fluorescence polarisation (FP) assay utilising a recombinant ligand binding domain (LBD) of GR. The test compounds are assessed by their ability to displace a fluorescently tagged ligand and detection of the resulting decrease in fluorescence polarisation.

The subject of experiment [2] is induction of TAT by dexamethasone in HepG2 cells. The experiment is described as follows: Hep G2 TAT assay (inhibition of dexamethasone-induced TAT). To be noted: challenge of 100 nM dexamethasone, IC50 converted to Ki by Cheng and Prusoff equation. Format: cell-based, human.

Chain of glucocorticoid receptor (GR) recombinant ligand binding domain (LBD) (P04150 524-758): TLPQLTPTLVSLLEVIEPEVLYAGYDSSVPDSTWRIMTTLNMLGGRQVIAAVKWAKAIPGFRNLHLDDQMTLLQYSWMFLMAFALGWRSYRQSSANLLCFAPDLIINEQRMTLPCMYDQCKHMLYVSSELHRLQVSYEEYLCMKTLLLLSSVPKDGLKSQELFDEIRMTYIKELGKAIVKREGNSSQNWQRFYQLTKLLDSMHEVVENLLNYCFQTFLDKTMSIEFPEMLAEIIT

On to `Cc1cc2c(cnn2-c2ccc(=O)n(C)c2)cc1C1(Cc2ccccc2)CCN(S(=O)(=O)c2ccc(C(F)(F)F)nc2)C1` (centres unmarked) [Example 292, 5-(5-(3-benzyl-1-((6-(trifluoromethyl)pyridin-3-yl)sulfonyl)pyrrolidin-3-yl)-6-methyl-1H-indazol-1-yl)-1-methylpyridin-2(1H)-one], for which, in experiment [1], the IC50 was found to be 14 nM. Also, in experiment [2], the affinity, expressed as Ki, was 110 nM.

With `Cc1cc2c(cnn2-c2ccc(=O)n(C)c2)cc1C1(Cc2ccccc2)CCN(S(=O)(=O)c2ccnn2C)C1` (centres unmarked) [Example 293, 5-(5-(3-benzyl-1-((1-methyl-1H-pyrazol-5-yl)sulfonyl)pyrrolidin-3-yl)-6-methyl-1H-indazol-1-yl)-1-methylpyridin-2(1H)-one], in experiment [1], the IC50 came out at 6.1 nM. In experiment [2], this compound came in with a Ki of 100 nM.

In the case of `Cc1cc2c(cnn2-c2ccc(=O)n(C)c2)cc1C1(Cc2ccccc2)CCN(S(=O)(=O)c2ccccc2)C1` (centres unmarked) [Example 294, 5-(5-(3-benzyl-1-(phenylsulfonyl)pyrrolidin-3-yl)-6-methyl-1H-indazol-1-yl)-1-methylpyridin-2(1H)-one], the IC50 in experiment [1] was determined as 4 nM. The compound also displayed a Ki in experiment [2] of 41 nM.

As to `Cc1cc2c(cnn2-c2ccc(=O)n(C)c2)cc1C1(Cc2ccccc2)CCN(S(=O)(=O)c2cccc(C#N)c2)C1` (centres unmarked) [Example 295, 3-((3-benzyl-3-(6-methyl-1-(1-methyl-6-oxo-1,6-dihydropyridin-3-yl)-1H-indazol-5-yl)pyrrolidin-1-yl)sulfonyl)benzonitrile], the IC50 in experiment [1] was 6.3 nM. This compound yielded a Ki in experiment [2] of 62 nM.

Take `[2H]C([2H])([2H])n1ncc(S(=O)(=O)N2CCC(Cc3ccccc3)(c3cc4cnn(-c5ccc(=O)n(C)c5)c4cc3C)C2)n1` (centres unmarked) [Example 296, 5-(5-(3-benzyl-1-((2-(methyl-d3)-2H-1,2,3-triazol-4-yl)sulfonyl)pyrrolidin-3-yl)-6-methyl-1H-indazol-1-yl)-1-methylpyridin-2(1H)-one]: in experiment [1], the IC50 was 6.9 nM. The same compound displayed a Ki in experiment [2] of 44 nM.

For `Cc1cc2c(cnn2-c2ccc(=O)n(C)c2)cc1C1(Cc2ccccc2)CCN(S(=O)(=O)c2cc(F)cc(F)c2)C1` (centres unmarked) [Example 297, 5-(5-(3-benzyl-1-((3,5-difluorophenyl)sulfonyl)pyrrolidin-3-yl)-6-methyl-1H-indazol-1-yl)-1-methylpyridin-2(1H)-one], the IC50 in experiment [1] turned out to be 10 nM. Also, the Ki in experiment [2] amounted to 36 nM.

Take `Cc1cc2c(cnn2-c2ccc(=O)n(C)c2)cc1C1(Cc2ccccc2)CCN(S(=O)(=O)c2ccc(F)cc2)C1` (centres unmarked) [Example 298, 5-(5-(3-benzyl-1-((4-fluorophenyl)sulfonyl)pyrrolidin-3-yl)-6-methyl-1H-indazol-1-yl)-1-methylpyridin-2(1H)-one]: the IC50 in experiment [1] is 3.6 nM. In experiment [2], this compound showed a Ki of 37 nM.

As to `Cc1ccc(S(=O)(=O)N2CCC(Cc3ccccc3)(c3cc4cnn(-c5ccc(=O)n(C)c5)c4cc3C)C2)cn1` (centres unmarked) [Example 299, 5-(5-(3-benzyl-1-((6-methylpyridin-3-yl)sulfonyl)pyrrolidin-3-yl)-6-methyl-1H-indazol-1-yl)-1-methylpyridin-2(1H)-one], the IC50 in experiment [1] came out at 8.8 nM. Moreover, the affinity in experiment [2] corresponds to a Ki of 48 nM.

In the case of `Cc1cc2c(cnn2-c2ccc(=O)n(C)c2)cc1C1(Cc2ccccc2)CCN(S(=O)(=O)c2cncc(F)c2)C1` (centres unmarked) [Example 300, 5-(5-(3-benzyl-1-((5-fluoropyridin-3-yl)sulfonyl)pyrrolidin-3-yl)-6-methyl-1H-indazol-1-yl)-1-methylpyridin-2(1H)-one], the IC50 in experiment [1] stood at 4.6 nM. Moreover, in experiment [2], the affinity, expressed as Ki, was 36 nM.

For `Cc1cc2c(cnn2-c2ccc(=O)n(C)c2)cc1C1(Cc2ccccc2)CCN(S(=O)(=O)c2ccccc2F)C1` (centres unmarked) [Example 301, 5-(5-(3-benzyl-1-((2-fluorophenyl)sulfonyl)pyrrolidin-3-yl)-6-methyl-1H-indazol-1-yl)-1-methylpyridin-2(1H)-one], the IC50 in experiment [1] was found to be 4.8 nM. Also, the affinity in experiment [2] corresponds to a Ki of 25 nM.

`Cc1cc2c(cnn2-c2ccc(=O)n(C)c2)cc1C1(Cc2ccccc2)CCN(S(=O)(=O)c2cccc(F)c2)C1` (centres unmarked) [Example 302, 5-(5-(3-benzyl-1-((3-fluorophenyl)sulfonyl)pyrrolidin-3-yl)-6-methyl-1H-indazol-1-yl)-1-methylpyridin-2(1H)-one]: the IC50 in experiment [1] amounted to 12 nM. Moreover, the Ki in experiment [2] came out at 27 nM.

In the case of `Cc1cc2c(cnn2-c2ccc(=O)n(C)c2)cc1C1(Cc2ccccc2)CCN(S(=O)(=O)c2cccc(C(F)(F)F)n2)C1` (centres unmarked) [Example 303, 5-(5-(3-benzyl-1-((6-(trifluoromethyl)pyridin-2-yl)sulfonyl)pyrrolidin-3-yl)-6-methyl-1H-indazol-1-yl)-1-methylpyridin-2(1H)-one], the IC50 in experiment [1] is 4.4 nM. Further, in experiment [2], the affinity, expressed as Ki, was 24 nM.

Consider `COc1ccc(S(=O)(=O)N2CCC(Cc3ccccc3)(c3cc4cnn(-c5ccc(=O)n(C)c5)c4cc3C)C2)cc1` (centres unmarked) [Example 304, 5-(5-(3-benzyl-1-((4-methoxyphenyl)sulfonyl)pyrrolidin-3-yl)-6-methyl-1H-indazol-1-yl)-1-methylpyridin-2(1H)-one], for which the IC50 in experiment [1] was 7.5 nM. Moreover, in experiment [2], the Ki is 48 nM.

Consider `Cc1cc2c(cnn2-c2ccc(=O)n(C)c2)cc1C1(Cc2ccccc2)CCN(S(=O)(=O)c2ccc(Cl)cc2)C1` (centres unmarked) [Example 305, 5-(5-(3-benzyl-1-((4-chlorophenyl)sulfonyl)pyrrolidin-3-yl)-6-methyl-1H-indazol-1-yl)-1-methylpyridin-2(1H)-one], for which the IC50 in experiment [1] amounted to 3 nM. In experiment [2], the Ki was 32 nM.

Consider `COc1ccc(S(=O)(=O)N2CCC(Cc3ccccc3)(c3cc4cnn(-c5ccc(=O)n(C)c5)c4cc3C)C2)cn1` (centres unmarked) [Example 306, 5-(5-(3-benzyl-1-((6-methoxypyridin-3-yl)sulfonyl)pyrrolidin-3-yl)-6-methyl-1H-indazol-1-yl)-1-methylpyridin-2(1H)-one], for which the IC50 in experiment [1] turned out to be 11 nM. Also, in experiment [2], the affinity, expressed as Ki, was 56 nM.

Take `Cc1ccc(S(=O)(=O)N2CCC(Cc3ccccc3)(c3cc4cnn(-c5ccc(=O)n(C)c5)c4cc3C)C2)cc1` (centres unmarked) [Example 307, 5-(5-(3-benzyl-1-tosylpyrrolidin-3-yl)-6-methyl-1H-indazol-1-yl)-1-methylpyridin-2(1H)-one]: the IC50 in experiment [1] amounted to 8.8 nM. The compound further showed an inhibitory constant (Ki) in experiment [2] of 89 nM.

Take `Cc1cc2c(cnn2-c2ccc(=O)n(C)c2)cc1C1(Cc2ccccc2)CCN(S(=O)(=O)c2ccc(C#N)cc2)C1` (centres unmarked) [Example 308, 4-((3-benzyl-3-(6-methyl-1-(1-methyl-6-oxo-1,6-dihydropyridin-3-yl)-1H-indazol-5-yl)pyrrolidin-1-yl)sulfonyl)benzonitrile]: the IC50 in experiment [1] is 14 nM. This compound also displayed a Ki in experiment [2] of 62 nM.

In the case of `Cc1cncc(S(=O)(=O)N2CCC(Cc3ccccc3)(c3cc4cnn(-c5ccc(=O)n(C)c5)c4cc3C)C2)c1` (centres unmarked) [Example 309, 5-(5-(3-benzyl-1-((5-methylpyridin-3-yl)sulfonyl)pyrrolidin-3-yl)-6-methyl-1H-indazol-1-yl)-1-methylpyridin-2(1H)-one], the IC50 in experiment [1] was 11 nM. Also, the affinity in experiment [2], expressed as Ki, was 66 nM.

For the compound `COc1cccc(S(=O)(=O)N2CCC(Cc3ccccc3)(c3cc4cnn(-c5ccc(=O)n(C)c5)c4cc3C)C2)c1` (centres unmarked) [Example 310, 5-(5-(3-benzyl-1-((3-methoxyphenyl)sulfonyl)pyrrolidin-3-yl)-6-methyl-1H-indazol-1-yl)-1-methylpyridin-2(1H)-one], the IC50 in experiment [1] was determined as 11 nM. The affinity in experiment [2], expressed as Ki, was 66 nM.

Regarding `Cc1cc2c(cnn2-c2ccc(=O)n(C)c2)cc1C1(Cc2ccccc2)CCN(S(=O)(=O)c2cnccc2Cl)C1` (centres unmarked) [Example 311, 5-(5-(3-benzyl-1-((4-chloropyridin-3-yl)sulfonyl)pyrrolidin-3-yl)-6-methyl-1H-indazol-1-yl)-1-methylpyridin-2(1H)-one], the IC50 in experiment [1] worked out at 3 nM. Moreover, in experiment [2], the Ki is 29 nM.

Consider `Cc1cc2c(cnn2-c2ccc(=O)n(C)c2)cc1C1(Cc2ccccc2)CCN(S(=O)(=O)c2cncc(Cl)c2)C1` (centres unmarked) [Example 312, 5-(5-(3-benzyl-1-((5-chloropyridin-3-yl)sulfonyl)pyrrolidin-3-yl)-6-methyl-1H-indazol-1-yl)-1-methylpyridin-2(1H)-one], for which the IC50 in experiment [1] came out at 12 nM. This compound also registered a Ki in experiment [2] of 41 nM.

Consider `Cc1cc2c(cnn2-c2ccc(=O)n(C)c2)cc1C1(Cc2ccccc2)CCN(S(=O)(=O)c2ccc(Cl)cc2C#N)C1` (centres unmarked) [Example 313, 2-((3-benzyl-3-(6-methyl-1-(1-methyl-6-oxo-1,6-dihydropyridin-3-yl)-1H-indazol-5-yl)pyrrolidin-1-yl)sulfonyl)-5-chlorobenzonitrile], for which the IC50 in experiment [1] is 8.3 nM. Besides, in experiment [2], the affinity, expressed as Ki, was 50 nM.

`Cc1cc2c(cnn2-c2ccc(=O)n(C)c2)cc1C1(Cc2ccccc2)CCN(S(=O)(=O)c2ccc(F)cc2F)C1` (centres unmarked) [Example 314, 5-(5-(3-benzyl-1-((2,4-difluorophenyl)sulfonyl)pyrrolidin-3-yl)-6-methyl-1H-indazol-1-yl)-1-methylpyridin-2(1H)-one]: the IC50 in experiment [1] was found to be 11 nM. In experiment [2], this compound registered a Ki of 56 nM.

As to `Cc1cc2c(cnn2-c2ccc(=O)n(C)c2)cc1C1(Cc2ccccc2)CCN(S(=O)(=O)c2c(F)cccc2F)C1` (centres unmarked) [Example 315, 5-(5-(3-benzyl-1-((2,6-difluorophenyl)sulfonyl)pyrrolidin-3-yl)-6-methyl-1H-indazol-1-yl)-1-methylpyridin-2(1H)-one], the IC50 in experiment [1] was found to be 6.7 nM. Further, affinity in experiment [2] was put at a Ki of 29 nM.

Regarding `Cc1cc2c(cnn2-c2ccc(=O)n(C)c2)cc1C1(Cc2ccccc2)CCN(S(=O)(=O)c2cc(F)ccc2F)C1` (centres unmarked) [Example 316, 5-(5-(3-benzyl-1-((2,5-difluorophenyl)sulfonyl)pyrrolidin-3-yl)-6-methyl-1H-indazol-1-yl)-1-methylpyridin-2(1H)-one], the IC50 in experiment [1] turned out to be 12 nM. The same compound registered a Ki in experiment [2] of 32 nM.
